Experimental findings from article PMC3004258, “Structure of the inhibitor complex of old yellow enzyme from Trypanosoma cruzi” (Journal of Synchrotron Radiation, 2010) are described below.

The experiment concerns the target T1, TcOYE (old yellow enzyme from Trypanosoma cruzi; PGF2alpha synthase) (Trypanosoma cruzi, UniProt Q8I6L9).
T1 construct: gene TcPGFS; recombinant, overexpressed in E. coli and purified; 2 molecules per asymmetric unit; residues up to at least 379
T1 sequence (Q8I6L9 1-379): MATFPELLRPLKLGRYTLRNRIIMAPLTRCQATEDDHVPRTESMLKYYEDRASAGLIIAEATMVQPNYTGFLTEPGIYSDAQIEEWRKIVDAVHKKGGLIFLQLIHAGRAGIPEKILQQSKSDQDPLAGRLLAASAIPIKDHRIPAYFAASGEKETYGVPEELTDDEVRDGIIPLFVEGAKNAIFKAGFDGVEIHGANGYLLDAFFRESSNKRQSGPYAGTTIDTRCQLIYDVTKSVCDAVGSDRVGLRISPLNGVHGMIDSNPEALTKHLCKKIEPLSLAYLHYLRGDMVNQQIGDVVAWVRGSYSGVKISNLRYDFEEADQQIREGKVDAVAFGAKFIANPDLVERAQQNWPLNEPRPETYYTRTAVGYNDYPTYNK
Description: X-ray crystallography, […] Å. The experiment is classed as binding. As to conditions: TcOYE/FMN binary complex; prosthetic group at C-terminal ends of barrel strands.

Regarding `Cc1cc2nc3c(=O)[nH]c(=O)nc-3n(C[C@H](O)[C@H](O)[C@H](O)COP(=O)(O)O)c2cc1C` [FMN], the “X-ray crystallography, 1.7 Å” value was “The structure of TcOYE/FMN binary complex was determined by molecular replacement methods”.
